Here are results for 2 compounds from publication PMC12766724, “Synthesis, Anthelmintic Activity, and Mechanism of Action of 5‑Aryl‑1H‑indoles” (Journal of Agricultural and Food Chemistry, 2025).

As a reminder, the LC50 is the concentration lethal to half of the exposed cells or organisms. One may read the IC50 as the point on the concentration scale where inhibition reaches its midpoint. A low value points to greater potency in that assay.

In brackets after ≈: the same amount, converted by molar mass.

One data set has as its system Meloidogyne incognita. Also noted: method as in not printed (reference number lost in b5). Conditions: ref not printed (reference number lost in b5); cited from earlier work.
The next data set has as its system C. elegans N2 wild-type. The data set is described as follows: Chitinase assay (reproductive capacity). Format: in vivo, Caenorhabditis elegans. To be noted: Caenorhabditis elegans. The method in brief:
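Wild-type N2 L1 larvae were exposed to compounds for 4 days, then populations were examined microscopically and Chitinase activity, released at hatching, was measured as a read-out of reproduction. Failure from acute or reproductive toxicity or developmental defects is detected.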

Data set [1] is described as follows: Visual inspection of DMSO stock solutions. The format is physicochemical. To be noted: 50 mM in DMSO, stored at −20 °C. As for the experimental part: For bioassays, all compounds were dissolved in dimethyl sulfoxide (DMSO) to prepare 50 mM stock solutions. Stock solutions were stored at −20 °C and diluted in water or the appropriate media for each bioassay to achieve the final concentrations indicated below. Solubility was evaluated by visual inspection of stock solutions (assessing clarity or cloudiness) and by microscopic examination of media to detect potential crystal formation. The final DMSO concentrations in the bioassays were kept at levels that had no detectable impact on test organisms, as determined by comparison with water-treated controls (0.1% for cell cultures, 0.2% for nematodes, and 0.3% for Arabidopsis thaliana Col-0).

For data set [2], the system named is Heterodera schachtii second-stage juveniles (J2). The data set is described as follows: Motility on WMicrotracker ONE. Format: in vivo. The gist of the method: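 Second-stage juveniles of H. schachtii, reared on in vitro mustard roots on modified KNOP medium, were exposed to compounds in microtiter wells. Motility was scored as activity counts, i.e. interruptions of infrared microbeams passing through each well.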

For a further data set, the system named is Skin fibroblasts (BJ). The experiment in a line: Resazurin assay, 3-day treatment. The format is cell-based, human. Conditions: BJ. A general note: The colour change of resazurin is a common sign of viable cells or microbes.
Data set [3] has as its system human keratinocytes (HaCaT). The data set is described as follows: Resazurin assay, 3-day treatment. The format is cell-based.
Data set [4] deals with age unsynchronized Ditylenchus destructor. The data set is described as follows: Motility on WMicrotracker ONE. Format: in vivo. The gist of the method: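 Age-unsynchronized populations of Ditylenchus destructor were maintained following a previously described protocol. Their motility was measured on the WMicrotracker ONE platform using previously published methods. The instrument scores the activity of small animals by counting how often infrared light microbeams passing through the wells of a microtiter plate are interrupted. Activity was recorded before treatment and during exposure to compounds.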

In data set [5] the test system is Arabidopsis thaliana Col-0. The data set is described as follows: Germination rate and phytotoxicity. Format: in vivo. Conditions: for average fraction of germinated seeds: 5 DPS; for main root length / plant weight: 10 DPS. As for the experimental part: Wild-type A. thaliana (Col-0 ecotype) seeds were sterilized with 70% EtOH with 0.1% Tween-20 solution (2 × 1 mL) for 10 min, rinsed with 96% EtOH (1 × 1 mL) for 10 min, and kept in the fridge (4 °C in the dark). Seeds were sown on a sterile 1/2 MS medium supplemented with 0.3% DMSO as a mock and test compounds at 5, 10, 50, and 100 μM concentrations in 0.3% DMSO. Plates were kept in long-day light conditions (22 °C/20 °C, 16 h light/8 h dark, 100 μmol m^–2 s^–1). After 5 days, the germination rate was evaluated. After an additional 5 days, primary root growth was measured with ImageJ software (https://imagej.nih.gov/ij/), and seedlings were weighted.

Where [6] appears, read: 10 µM group, initial (prior to the treatment).
[7] abbreviates: 50 µM group, initial (prior to the treatment).
[8] abbreviates: 100 µM group, initial (prior to the treatment).

For `O=C(O)Cc1c[nH]c2ccccc12` [Indole-3-acetic acid], the LC50 in the data set on Meloidogyne incognita was 117 µg/mL (≈ 668 µM).

Regarding `CC(C)c1ccc(-c2ccc3[nH]ccc3c2)cc1` [i-17], half-maximal inhibition in the data set on C. elegans N2 wild-type (IC50) was put at 7.6 ± 2.3 µM. In addition, in data set [1], the “stability of stock solutions” value is recorded as “precipitation of stock solutions after a single freeze–thaw cycle”. In addition, the average activity counts in data set [2] (setting [6]) is given as 178; in data set [2] (10 µM, 48 h), 160; in data set [2] (10 µM, 72 h), 139; in data set [2] (setting [7]), 181; in data set [2] (50 µM, 48 h), 158; in data set [2] (50 µM, 72 h), 158. Besides, the average activity counts in data set [2] (setting [8]) is given as 197; in data set [2] (100 µM, 48 h) it was 158; in data set [2] (100 µM, 72 h), 122; in data set [4] (setting [6]), 228; in data set [4] (10 µM, 48 h) it was 211; in data set [4] (10 µM, 72 h), 212. The average activity counts in data set [4] (setting [7]) worked out at 228; in data set [4] (50 µM, 48 h), 223; in data set [4] (50 µM, 72 h) it was 224; in data set [4] (setting [8]) it was 245; in data set [4] (100 µM, 48 h) it was 206; in data set [4] (100 µM, 72 h), 212. Moreover, the “Average viability (signal intensity relative to control)” value in the data set with Skin fibroblasts (BJ) (10 µM) is 0.9 ± 0.01; in the data set with Skin fibroblasts (BJ) (20 µM), 0.92 ± 0.05; in the data set with Skin fibroblasts (BJ) (40 µM) it was 0.82 ± 0.07; in data set [3] (10 µM), 0.98 ± 0.01; in data set [3] (20 µM), 0.99 ± 0.01; in data set [3] (40 µM) it was 0.87 ± 0.04. The “average fraction of germinated seeds” value in data set [5] (5 µM) is 0.95; in data set [5] (10 µM) it was 0.98; in data set [5] (50 µM), 0.89. Besides, the main root length is on record as 38.83 mm in data set [5] (5 µM), 37.53 mm in data set [5] (10 µM) and 31.19 mm in data set [5] (50 µM). In addition, the plant weight in data set [5] (5 µM) is reported as 35.01 mg; in data set [5] (10 µM), 28.28 mg; in data set [5] (50 µM), 26.18 mg.
